# Laboratory results reported in patent US20060216336A1, “Transdermal therapeutic system for Parkinson's Disease” (priority 2002, published 2006).
# Columns and labels:
# [1] = test system: RLS symptoms; conditions: administration of rotigotine; cited from earlier work
# [2] = Multiple dose trial with rotating patch application sites in early-stage Parkinson's disease: rotigotine pharmacokinetics (Example 4)
# From the text: Each day, a fresh patch was placed on a new skin site (abdomen, flank, upper arm, shoulder, thigh, hip) in a rotating order. The silicone transdermal patches were made in accordance with the teachings of U.S. Patent Application Publication No. US 2003/0026830 at paragraphs 38-42, U.S. Patent Application Publication No. US 2003/0027793 at paragraphs 37-41 and U.S. Pat. No. 6,884,434, columns 5-6, Example 2 and comprised the following layers and components:
# The trial consisted of an Eligibility Assessment (EA), a 24-day Titration Phase (4.5 to 18.0 mg/day doses; incremental increases of 4.5mg/day every 6 days), a 6-day Maintenance Phase (18.0 mg/day dose), a 6-day De-escalation Phase (13.5/9.0/4.5mg/day decreasing dose every 2 days), and a Safety Follow-Up visit 2 days following the last dose.
# The silicone transdermal patches were made in accordance with the teachings of U.S. Patent Application Publication No. US 2003/0026830 at paragraphs 3842 and U.S. Patent Application Publication No. US 2003/0027793 at paragraphs 3741 comprised the following layers and components as disclosed above
# The 18.0 mg/day dose used 2×20 cm^2 patches. Initial doses were 4.5 mg/day with weekly increases of 4.5 mg/day to a maximum target dose of 18.0 mg/day.
# [3] = application site Abdomen, normalized for body weight and apparent dose, Day 27 and Day 30 combined (PKS)
# [4] = application site Flank, normalized for body weight and apparent dose, Day 27 and Day 30 combined (PKS)
# [5] = application site Hip, normalized for body weight and apparent dose, Day 27 and Day 30 combined (PKS)
# [6] = application site Shoulder, normalized for body weight and apparent dose, Day 27 and Day 30 combined (PKS)
# [7] = application site Thigh, normalized for body weight and apparent dose, Day 27 and Day 30 combined (PKS)
# [8] = application site Upper arm, normalized for body weight and apparent dose, Day 27 and Day 30 combined (PKS)
compound,measurement,setting,value
"CCCN(CCc1cccs1)[C@H]1CCc2c(O)cccc2C1 [rotigotine, (6S)-6{propyl[2-(2-thienyl)ethyl]amino}-5,6,7,8-tetrahydro-1-naphthalenol]",effect on RLS symptoms,[1],suppression and reduction of RLS symptoms
same,Time to Maximum Concentration,"[2]; Day 30, site F (flank), Geo. Mean",15.43 h
same,Time to Maximum Concentration,"[2]; Days 27 and 30 combined, site UA (upper arm), Mean",12.71 h
same,"AUC0-t,ss,normalized, Range",[2]; [3],89.3 to 952.1 ng·kg·h/mL/mg
same,"Cmax,ss, normalized, Geometric mean (SD)",[2]; [3],16.367 (1.6473) ng * kg/mL/mg
same,"Cmax,ss, normalized, Median",[2]; [3],14.906 ng·kg/mL/mg
same,"Cmax,ss, normalized, Geometric mean (SD)",[2]; [4],17.168 (1.5894) ng * kg/mL/mg
same,"Cmax,ss, normalized, Mean",[2]; [4],18.976 ng·kg/mL/mg
same,"Cmax,ss, normalized, Median",[2]; [4],16.666 ng·kg/mL/mg
same,"Cmax,ss, normalized, Geometric mean (SD)",[2]; [5],17.253 (1.6685) ng * kg/mL/mg
same,"Cmax,ss, normalized, Mean",[2]; [5],19.956 ng·kg/mL/mg
same,"Cmax,ss, normalized, Median",[2]; [5],15.577 ng·kg/mL/mg
same,"Cmax,ss, normalized, Geometric mean (SD)",[2]; [6],14.499 (1.5627) ng * kg/mL/mg
same,"Cmax,ss, normalized, Mean",[2]; [6],15.898 ng·kg/mL/mg
same,"Cmax,ss, normalized, Median",[2]; [6],15.328 ng·kg/mL/mg
same,"Cmax,ss, normalized, Geometric mean (SD)",[2]; [7],16.046 (1.5548) ng * kg/mL/mg
same,"Cmax,ss, normalized, Mean",[2]; [7],17.793 ng·kg/mL/mg
same,"Cmax,ss, normalized, Median",[2]; [7],15.506 ng·kg/mL/mg
same,"Cmax,ss, normalized, Geometric mean (SD)",[2]; [8],16.508 (1.4597) ng * kg/mL/mg
same,"Cmax,ss, normalized, Mean",[2]; [8],17.727 ng·kg/mL/mg
same,"Cmax,ss, normalized, Median",[2]; [8],15.499 ng·kg/mL/mg
same,plasma concentration at Time 0 (Ctrough),"[2]; human, in vivo",about 1 ng/mL
same,concentration at 30 day,"[2]; human, in vivo, 18 mg/day, Average Concentration, Day 30, site UA (upper arm), Median",0.895 ng/mL
same,concentration at […],"[2]; human, in vivo, 18 mg/day, rotigotine plasma concentration Geo. Mean, Hip, Day 27, 23.5 H",0.875 ng/mL
same,concentration at […],"[2]; human, in vivo, 18 mg/day, rotigotine plasma concentration Geo. Mean, Hip, Day 30, 23.5 H",0.758 ng/mL
same,concentration at […],"[2]; human, in vivo, 18 mg/day, rotigotine plasma concentration Geo. Mean, Shoulder, Day 30, 23.5 H",0.851 ng/mL
same,concentration at […],"[2]; human, in vivo, 18 mg/day, rotigotine plasma concentration Geo. Mean, Shoulder, Days 27 & 30 Combined, 23.5 H",0.82 ng/mL
same,concentration at […],"[2]; human, in vivo, 18 mg/day, rotigotine plasma concentration Geo. Mean, Thigh, Day 30, 23.5 H",0.656 ng/mL
same,concentration at 18 h,"[2]; human, in vivo, 18 mg/day, rotigotine plasma concentration Geo. Mean, Thigh, Days 27 & 30 Combined, 18 H",0.895 ng/mL
same,concentration at […],"[2]; human, in vivo, 18 mg/day, rotigotine plasma concentration Geo. Mean, Thigh, Days 27 & 30 Combined, 23.5 H",0.639 ng/mL
same,concentration at […],"[2]; human, in vivo, 18 mg/day, rotigotine plasma concentration Geo. Mean, Upper Arm, Day 30, 23.5 H",0.833 ng/mL
same,concentration at […],"[2]; human, in vivo, 18 mg/day, rotigotine plasma concentration Geo. Mean, Upper Arm, Days 27 & 30 Combined, 23.5 H",0.789 ng/mL
same,concentration at […],"[2]; human, in vivo, 18 mg/day, rotigotine plasma concentration Max, Hip, Day 27, 23.5 H",1.75 ng/mL
same,concentration at […],"[2]; human, in vivo, 18 mg/day, rotigotine plasma concentration Max, Hip, Day 30, 23.5 H",1.35 ng/mL
same,concentration at […],"[2]; human, in vivo, 18 mg/day, rotigotine plasma concentration Max, Hip, Days 27 & 30 Combined, 23.5 H",1.75 ng/mL
same,concentration at […],"[2]; human, in vivo, 18 mg/day, rotigotine plasma concentration Max, Shoulder, Day 30, 23.5 H",3.01 ng/mL
same,concentration at […],"[2]; human, in vivo, 18 mg/day, rotigotine plasma concentration Max, Shoulder, Days 27 & 30 Combined, 23.5 H",3.01 ng/mL
same,concentration at […],"[2]; human, in vivo, 18 mg/day, rotigotine plasma concentration Max, Thigh, Day 30, 23.5 H",1.59 ng/mL
same,concentration at […],"[2]; human, in vivo, 18 mg/day, rotigotine plasma concentration Max, Thigh, Days 27 & 30 Combined, 23.5 H",1.59 ng/mL
same,concentration at […],"[2]; human, in vivo, 18 mg/day, rotigotine plasma concentration Max, Upper Arm, Day 27, 23.5 H",1.88 ng/mL
same,concentration at […],"[2]; human, in vivo, 18 mg/day, rotigotine plasma concentration Max, Upper Arm, Day 30, 23.5 H",1.67 ng/mL
same,concentration at […],"[2]; human, in vivo, 18 mg/day, rotigotine plasma concentration Max, Upper Arm, Days 27 & 30 Combined, 23.5 H",1.88 ng/mL
same,concentration at […],"[2]; human, in vivo, 18 mg/day, rotigotine plasma concentration Mean, Hip, Day 27, 23.5 H",0.96 ng/mL
same,concentration at […],"[2]; human, in vivo, 18 mg/day, rotigotine plasma concentration Mean, Hip, Day 30, 23.5 H",0.82 ng/mL
same,concentration at […],"[2]; human, in vivo, 18 mg/day, rotigotine plasma concentration Mean, Hip, Days 27 & 30 Combined, 23.5 H",0.89 ng/mL
same,concentration at […],"[2]; human, in vivo, 18 mg/day, rotigotine plasma concentration Mean, Shoulder, Day 30, 23.5 H",1.02 ng/mL
same,concentration at […],"[2]; human, in vivo, 18 mg/day, rotigotine plasma concentration Mean, Shoulder, Days 27 & 30 Combined, 23.5 H",0.966 ng/mL
same,concentration at […],"[2]; human, in vivo, 18 mg/day, rotigotine plasma concentration Mean, Thigh, Day 30, 23.5 H",0.784 ng/mL
same,concentration at […],"[2]; human, in vivo, 18 mg/day, rotigotine plasma concentration Mean, Thigh, Days 27 & 30 Combined, 23.5 H",0.735 ng/mL
same,concentration at […],"[2]; human, in vivo, 18 mg/day, rotigotine plasma concentration Mean, Upper Arm, Day 27, 23.5 H",0.936 ng/mL
same,concentration at […],"[2]; human, in vivo, 18 mg/day, rotigotine plasma concentration Mean, Upper Arm, Day 30, 23.5 H",0.924 ng/mL
same,concentration at […],"[2]; human, in vivo, 18 mg/day, rotigotine plasma concentration Mean, Upper Arm, Days 27 & 30 Combined, 23.5 H",0.93 ng/mL
same,concentration at […],"[2]; human, in vivo, 18 mg/day, rotigotine plasma concentration Median, Hip, Day 27, 23.5 H",0.957 ng/mL
same,concentration at […],"[2]; human, in vivo, 18 mg/day, rotigotine plasma concentration Median, Hip, Day 30, 23.5 H",0.692 ng/mL
same,concentration at […],"[2]; human, in vivo, 18 mg/day, rotigotine plasma concentration Median, Shoulder, Day 30, 23.5 H",0.848 ng/mL
same,concentration at […],"[2]; human, in vivo, 18 mg/day, rotigotine plasma concentration Median, Shoulder, Days 27 & 30 Combined, 23.5 H",0.799 ng/mL
same,concentration at […],"[2]; human, in vivo, 18 mg/day, rotigotine plasma concentration Median, Thigh, Day 30, 23.5 H",0.68 ng/mL
same,concentration at […],"[2]; human, in vivo, 18 mg/day, rotigotine plasma concentration Median, Thigh, Days 27 & 30 Combined, 23.5 H",0.668 ng/mL
same,concentration at […],"[2]; human, in vivo, 18 mg/day, rotigotine plasma concentration Median, Upper Arm, Day 30, 23.5 H",0.899 ng/mL
same,concentration at […],"[2]; human, in vivo, 18 mg/day, rotigotine plasma concentration Median, Upper Arm, Days 27 & 30 Combined, 23.5 H",0.899 ng/mL
same,concentration at […],"[2]; human, in vivo, 18 mg/day, rotigotine plasma concentration Min, Hip, Day 27, 23.5 H",0.261 ng/mL
same,concentration at […],"[2]; human, in vivo, 18 mg/day, rotigotine plasma concentration Min, Hip, Day 30, 23.5 H",0.461 ng/mL
same,concentration at […],"[2]; human, in vivo, 18 mg/day, rotigotine plasma concentration Min, Hip, Days 27 & 30 Combined, 23.5 H",0.261 ng/mL
same,concentration at […],"[2]; human, in vivo, 18 mg/day, rotigotine plasma concentration Min, Shoulder, Day 30, 23.5 H",0.405 ng/mL
same,concentration at […],"[2]; human, in vivo, 18 mg/day, rotigotine plasma concentration Min, Shoulder, Days 27 & 30 Combined, 23.5 H",0.387 ng/mL
same,concentration at […],"[2]; human, in vivo, 18 mg/day, rotigotine plasma concentration Min, Thigh, Day 30, 23.5 H",0.152 ng/mL
